Values of other authors in patent publication US5419315A, “Intrapulmonary delivery of hormones” (Aradigm Corporation, priority 1994, dated 1995).

conditions: in vivo

Molecule | Bioavailability (%) | bioavailability when administered intranasally
NC(=O)CC[C@@H]1NC(=O)[C@H](Cc2ccccc2)NC(=O)[C@H](Cc2ccc(O)cc2)NC(=O)CCSSC[C@@H](C(=O)N2CCC[C@H]2C(=O)N[C@H](CCCN=C(N)N)C(=O)NCC(N)=O)NC(=O)[C@H](CC(N)=O)NC1=O [Desmopressin] | 10% | 
CCNC(=O)[C@@H]1CCCN1C(=O)[C@H](CCCNC(=N)N)NC(=O)[C@H](CC(C)C)NC(=O)[C@@H](CC(C)C)NC(=O)[C@H](Cc1ccc(O)cc1)NC(=O)[C@H](CO)NC(=O)[C@H](Cc1c[nH]c2ccccc12)NC(=O)[C@H](Cc1c[nH]cn1)NC(=O)[C@@H]1CCC(=O)N1 [Leuprolide] | < 10% | relatively low
CC(C)C[C@H](NC(=O)[C@@H](Cc1ccc2ccccc2c1)NC(=O)[C@H](Cc1ccc(O)cc1)NC(=O)[C@H](CO)NC(=O)[C@H](Cc1c[nH]c2ccccc12)NC(=O)[C@H](Cc1c[nH]cn1)NC(=O)[C@@H]1CCC(=O)N1)C(=O)N[C@@H](CCCNC(=N)N)C(=O)N1CCC[C@H]1C(=O)NCC(N)=O [Nafarelin] | 2% | 
LHRH | 1.5% | 
Secretin | 10% | 

same assay, conditions: intranasal (nasal delivery)

Molecule | Bioavailability (%)
CC[C@H](C)[C@@H]1NC(=O)[C@H](Cc2ccc(O)cc2)NC(=O)[C@@H](N)CSSC[C@@H](C(=O)N2CCC[C@H]2C(=O)N[C@@H](CC(C)C)C(=O)NCC(N)=O)NC(=O)[C@H](CC(N)=O)NC(=O)[C@H](CCC(N)=O)NC1=O [Oxytocin] | 1%
C[C@H](N)C(=O)NCC(=O)N[C@H]1CSSC[C@@H](C(=O)O)NC(=O)[C@H](CO)NC(=O)[C@H]([C@@H](C)O)NC(=O)[C@H](Cc2ccccc2)NC(=O)[C@H]([C@@H](C)O)NC(=O)[C@H](CCCCN)NC(=O)[C@H](Cc2c[nH]c3ccccc23)NC(=O)[C@H](Cc2ccccc2)NC(=O)[C@H](Cc2ccccc2)NC(=O)[C@H](CC(N)=O)NC(=O)[C@H](CCCCN)NC1=O [Somatostatin] | 75%
Calcitonin | < 1%
GHRH (YADAIFTNSYRKVLGQLSARKLLQDIMSRQQGESNQERGA; Somatoliberin; UniProt P01286 32-71, looked up, fragment) | < 1%
Glucagon | < 1%
Growth hormone | < 1%
